Assay results from patent publication US20260193271A1, “PAN-KRAS INHIBITOR COMPOUND” (ADLAI NORTYE BIOPHARMA CO., LTD., priority 2022, published 2026).

Legend:
AsPC-1 (G12D) = assay: In vitro cell proliferation inhibition test (CellTiter-Glo), AsPC-1; format: cell-based; settings: Homo sapiens, ASPC1, AsPC-1 pancreas cell line, KRAS (p.G12D), 72 h co-incubation
Outline: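 Cells were seeded at 1000-5000/well by doubling time and cultured overnight at 37 °C, 5% CO2. They were then exposed for 72 h to 10-point, 3-fold compound dilutions (final top 10 μM), and viability was read by CellTiter-Glo luminescence. IC50 came from normalized signals fitted by four-parameter regression.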

SW480 (G12V) = assay: In vitro cell proliferation inhibition test (CellTiter-Glo), SW480; format: cell-based; settings: Homo sapiens, SW480 colon cell line, KRAS (p.G12V), 72 h co-incubation
Excerpt: Test Example 1: In Vitro Cell Proliferation Inhibition Test
Due to the diversity of RAS mutations and in order to evaluate the activity of compounds in different RAS mutation cell lines, we selected KRAS^WT, KRAS^G12C, KRAS^G12D, KRAS^G12V and BRAF mutation cell lines (see the table below) for in vitro activity evaluation and screening of compounds.
Protocol: CellTiter-Glo® Cell Luminescent Viability Assay (Promega)
According to the doubling time of different cell lines, different numbers of cells (1000-5000 cells/well) were seeded in 96-well plates containing 180 μl of corresponding culture medium and cultured overnight in a cell culture incubator at 37° C. with 5% CO2. On the second day, the test compound was pre-diluted 3-fold with culture medium, with the highest concentration being 100 μM, for a total of 10 concentration gradients; then 20 μl of culture medium containing different concentrations of the compound was added to the cells in the 96-well plate to ensure that the final concentration of the compound was up to 10 μM, with 10 concentration gradients of 3-fold dilution. After the cells and compounds were co-incubated for 72 h, the 96-well plate was removed from the incubator and equilibrated at room temperature for 30 min. Then, 25 μl of CellTiter-Glo® Reagent was added to each well and mixed thoroughly. The mixture was incubated at room temperature for 10 min, and then 100 μl of the sample was transferred to a white 96-well plate (OptiPlate™-96, PerkinElmer). The […] signal value was read using a multi-function microplate reader (SpectraMax® i3x, Molecular devices). The signal values were then standardized, and the curve was fitted using a four-parameter regression equation to calculate the half maximal inhibitory concentration (IC50) of the compound on the cell line.

Row | SMILES | IC50 (AsPC-1 (G12D)) | IC50 (SW480 (G12V))
1 | CCn1c(-c2cc(-c3cc(CN4CCOCC4)on3)cnc2[C@H](C)OC)c2c3cc(ccc31)-c1csc(n1)C[C@H](NC(=O)[C@H]1C[C@@H]1C)C(=O)N1CCC[C@H](N1)C(=O)OCC(C)(C)C2 (atropisomer, axis not shown) [Compound 22, (1S,2S)-N-((6^3S,4S,Z)-1^1-ethyl-1^2-(2-((S)-1-methoxyethyl)-5-(5-(morpholinomethyl)isoxazol-3-yl)pyridin-3-yl)-10,10-dimethyl-5,7-dioxo-6^1,6^2,6^3,6^4,6^5,6^6-hexahydro-1^1H-8-oxa-2(4,2)-thiazola-1(5,3)-indola-6(1,3)-pyridazinacycloundecaphane-4-yl)-2-methylcyclopropane-1-carboxamide] | 11 nM | 10 nM
2 | CCn1c(-c2cc(-c3cc(CNC)on3)cnc2[C@H](C)OC)c2c3cc(ccc31)-c1csc(n1)C[C@H](NC(=O)[C@H]1C[C@@H]1C)C(=O)N1CCC[C@H](N1)C(=O)OCC(C)(C)C2 (atropisomer, axis not shown) [Compound 23, (1S,2S)-N-((6^3S,4S,Z)-1^1-ethyl-1^2-(2-((S)-1-methoxyethyl)-5-(5-((methylamino)methyl)isoxazol-3-yl)pyridin-3-yl)-10,10-dimethyl-5,7-dioxo-6^1,6^2,6^3,6^4,6^5,6^6-hexahydro-1^1H-8-oxa-2(4,2)-thiazola-1(5,3)-indola-6(1,3)-pyridazinacycloundecaphane-4-yl)-2-methylcyclopropane-1-carboxamide] | 42 nM | 117 nM
3 | CCn1c(-c2cc(-c3cc([C@H]4CCCN4C)on3)cnc2[C@H](C)OC)c2c3cc(ccc31)-c1csc(n1)C[C@H](NC(=O)[C@H]1C[C@@H]1C)C(=O)N1CCC[C@H](N1)C(=O)OCC(C)(C)C2 (atropisomer, axis not shown) [Compound 24, (1S,2S)-N-((6^3S,4S,Z)-1^1-ethyl-1^2-(2-((S)-1-methoxyethyl)-5-(5-((R)-1-methylpyrrolidin-2-yl)isoxazol-3-yl)pyridin-3-yl)-10,10-dimethyl-5,7-dioxo-6^1,6^2,6^3,6^4,6^5,6^6-hexahydro-1^1H-8-oxa-2(4,2)-thiazola-1(5,3)-indola-6(1,3)-pyridazinacycloundecaphane-4-yl)-2-methylcyclopropane-1-carboxamide] | 26 nM | 19 nM
4 | CCn1c(-c2cc(-c3cc([C@@H]4CCCN4C)on3)cnc2[C@H](C)OC)c2c3cc(ccc31)-c1csc(n1)C[C@H](NC(=O)[C@H]1C[C@@H]1C)C(=O)N1CCC[C@H](N1)C(=O)OCC(C)(C)C2 (atropisomer, axis not shown) [Compound 25, (1S,2S)-N-((6^3S,4S,Z)-1^1-ethyl-1^2-(2-((S)-1-methoxyethyl)-5-(5-((S)-1-methylpyrrolidin-2-yl)isoxazol-3-yl)pyridin-3-yl)-10,10-dimethyl-5,7-dioxo-6^1,6^2,6^3,6^4,6^5,6^6-hexahydro-1^1H-8-oxa-2(4,2)-thiazola-1(5,3)-indola-6(1,3)-pyridazinacycloundecaphane-4-yl)-2-methylcyclopropane-1-carboxamide] | 20 nM | 22 nM
5 | CCn1c(-c2cc(-c3cc([C@H]4CN(C)CCO4)on3)cnc2[C@H](C)OC)c2c3cc(ccc31)-c1csc(n1)C[C@H](NC(=O)[C@H]1[C@H](C)[C@@H]1C)C(=O)N1CCC[C@H](N1)C(=O)OCC(C)(C)C2 (atropisomer, axis not shown) [Compound 26, (1r,2R,3S)-N-((6^3S,4S,Z)-1^1-ethyl-1^2-(2-((S)-1-methoxyethyl)-5-(5-((R)-4-methylmorpholin-2-yl)isoxazol-3-yl)pyridin-3-yl)-10,10-dimethyl-5,7-dioxo-6^1,6^2,6^3,6^4,6^5,6^6-hexahydro-1^1H-8-oxa-2(4,2)-thiazola-1(5,3)-indola-6(1,3)-pyridazinacycloundecaphane-4-yl)-2,3-dimethylcyclopropane-1-carboxamide] | 10 nM | 2.5 nM
6 | CCn1c(-c2cc(-c3cc([C@@H]4CN(C)CCO4)on3)cnc2[C@H](C)OC)c2c3cc(ccc31)-c1csc(n1)C[C@H](NC(=O)[C@H]1[C@H](C)[C@@H]1C)C(=O)N1CCC[C@H](N1)C(=O)OCC(C)(C)C2 (atropisomer, axis not shown) [Compound 27, (1r,2R,3S)-N-((6^3S,4S,Z)-1^1-ethyl-1^2-(2-((S)-1-methoxyethyl)-5-(5-((S)-4-methylmorpholin-2-yl)isoxazol-3-yl)pyridin-3-yl)-10,10-dimethyl-5,7-dioxo-6^1,6^2,6^3,6^4,6^5,6^6-hexahydro-1^1H-8-oxa-2(4,2)-thiazola-1(5,3)-indola-6(1,3)-pyridazinacycloundecaphane-4-yl)-2,3-dimethylcyclopropane-1-carboxamide] | 1.1 nM | 1.8 nM
7 | CCn1c(-c2cc(-c3cc([C@@H]4CCN(C)C4)on3)cnc2[C@H](C)OC)c2c3cc(ccc31)-c1csc(n1)C[C@H](NC(=O)[C@H]1[C@H](C)[C@@H]1C)C(=O)N1CCC[C@H](N1)C(=O)OCC(C)(C)C2 (atropisomer, axis not shown) [Compound 29, (1r,2R,3S)-N-((6^3S,4S,Z)-1^1-ethyl-1^2-(2-((S)-1-methoxyethyl)-5-(5-((R)-1-methylpyrrolidin-3-yl)isoxazol-3-yl)pyridin-3-yl)-10,10-dimethyl-5,7-dioxo-6^1,6^2,6^3,6^4,6^5,6^6-hexahydro-1^1H-8-oxa-2(4,2)-thiazola-1(5,3)-indola-6(1,3)-pyridazinacycloundecaphane-4-yl)-2,3-dimethylcyclopropane-1-carboxamide] | 3.2 nM | 10 nM
8 | CCn1c(-c2cc(-c3cc(C4CCN(C)CC4)on3)cnc2[C@H](C)OC)c2c3cc(ccc31)-c1csc(n1)C[C@H](NC(=O)[C@H]1C[C@@H]1C)C(=O)N1CCC[C@H](N1)C(=O)OCC(C)(C)C2 (atropisomer, axis not shown) [Compound 30, (1S,2S)-N-((6^3S,4S,Z)-1^1-ethyl-1^2-(2-((S)-1-methoxyethyl)-5-(5-(1-methylpiperidin-4-yl)isoxazol-3-yl)pyridin-3-yl)-10,10-dimethyl-5,7-dioxo-6^1,6^2,6^3,6^4,6^5,6^6-hexahydro-1^1H-8-oxa-2(4,2)-thiazola-1(5,3)-indola-6(1,3)-pyridazinacycloundecaphane-4-yl)-2-methylcyclopropane-1-carboxamide] | 0.58 nM | 0.44 nM
9 | CCn1c(-c2cc(-c3cc(C4CN(C)C4)on3)cnc2[C@H](C)OC)c2c3cc(ccc31)-c1csc(n1)C[C@H](NC(=O)[C@H]1C[C@@H]1C)C(=O)N1CCC[C@H](N1)C(=O)OCC(C)(C)C2 (atropisomer, axis not shown) [Compound 31, (1S,2S)-N-((6^3S,4S,Z)-1^1-ethyl-1^2-(2-((S)-1-methoxyethyl)-5-(5-(1-methylazetidin-3-yl)isoxazol-3-yl)pyridin-3-yl)-10,10-dimethyl-5,7-dioxo-6^1,6^2,6^3,6^4,6^5,6^6-hexahydro-1^1H-8-oxa-2(4,2)-thiazola-1(5,3)-indola-6(1,3)-pyridazinacycloundecaphane-4-yl)-2-methylcyclopropane-1-carboxamide] | 1.6 nM | 2 nM
